The pIC50 is −log10 of the IC50, conventionally taken in molar units. The low end stands for a large IC50, the high end for a small IC50.

Structures are written as SMILES. pIC50: −log10 of the molar value.

The results in this text go back to patent publication US20220363665A1, “QUINOLINE COMPOUNDS FOR THE TREATMENT OF AUTOIMMUNE DISEASE” (Hoffmann-La Roche Inc., priority 2019, published 2022).

This assay concerns the target T1, human TLR9 (Homo sapiens, UniProt Q9NR96).
T1 construct: host or cells: HEK293 (HEK-Blue hTLR9)
T1 sequence (Q9NR96 26-1032): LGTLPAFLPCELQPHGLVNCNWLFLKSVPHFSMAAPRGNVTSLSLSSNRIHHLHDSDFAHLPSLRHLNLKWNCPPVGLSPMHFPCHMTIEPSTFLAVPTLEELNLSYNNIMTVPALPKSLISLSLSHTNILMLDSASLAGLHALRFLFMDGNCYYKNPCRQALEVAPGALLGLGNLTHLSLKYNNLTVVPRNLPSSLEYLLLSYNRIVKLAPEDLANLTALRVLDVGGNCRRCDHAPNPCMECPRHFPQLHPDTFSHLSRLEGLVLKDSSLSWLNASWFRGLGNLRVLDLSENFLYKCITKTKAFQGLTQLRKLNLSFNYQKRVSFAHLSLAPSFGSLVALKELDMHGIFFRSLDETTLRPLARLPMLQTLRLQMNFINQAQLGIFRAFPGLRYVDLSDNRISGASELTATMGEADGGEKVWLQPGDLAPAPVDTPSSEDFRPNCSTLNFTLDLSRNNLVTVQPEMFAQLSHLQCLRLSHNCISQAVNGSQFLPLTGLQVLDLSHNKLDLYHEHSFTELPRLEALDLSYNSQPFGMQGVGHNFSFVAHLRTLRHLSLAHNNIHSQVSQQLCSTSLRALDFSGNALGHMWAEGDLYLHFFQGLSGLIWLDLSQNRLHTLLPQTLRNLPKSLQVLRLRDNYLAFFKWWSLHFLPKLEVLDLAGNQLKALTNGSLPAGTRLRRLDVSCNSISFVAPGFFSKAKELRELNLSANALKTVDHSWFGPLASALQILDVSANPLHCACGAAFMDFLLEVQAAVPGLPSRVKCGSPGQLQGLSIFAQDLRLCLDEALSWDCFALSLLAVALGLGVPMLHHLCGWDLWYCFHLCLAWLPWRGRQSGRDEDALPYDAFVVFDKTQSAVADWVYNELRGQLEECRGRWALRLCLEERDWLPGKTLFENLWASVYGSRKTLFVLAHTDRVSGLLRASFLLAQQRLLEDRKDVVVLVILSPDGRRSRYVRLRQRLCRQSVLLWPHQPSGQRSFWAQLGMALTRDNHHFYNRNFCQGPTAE
The experiment in a line: HEK293-Blue-hTLR-9 cells assay (SEAP reporter, ODN2006 stimulation). The assay is classed as cell-based. The settings on record: HEK293-Blue-hTLR9 cells, ODN2006, 20 hrs. The method, then: The following tests were carried out in order to determine the activity of the compounds of formula (I) in HEK293-Blue-hTLR-7/8/9 cells assay.
HEK293-Blue-hTLR-9 Cells Assay:
A stable HEK293-Blue-hTLR-9 cell line was purchased from InvivoGen (Cat. #. hkb-htlr9, San Diego, Calif., USA). These cells were originally designed for studying the stimulation of human TLR9 by monitoring the activation of NF-κB. A SEAP (secreted embryonic alkaline phosphatase) reporter gene was placed under the control of the […] minimal promoter fused to five NF-κB and AP-1-binding sites. The SEAP was induced by activating NF-κB and AP-1 via stimulating HEK-Blue hTLR9 cells with TLR9 ligands. Therefore the reporter expression was declined by TLR9 antagonist under the stimulation of a ligand, such as ODN2006 (Cat. #: tlrl-2006-1, Invivogen, San Diego, Calif., USA), for incubation of 20 hrs. The cell culture supernatant SEAP reporter activity was determined using QUANTI-Blue™ kit (Cat. #: rep-qbl, Invivogen, San Diego, Calif., USA) at a wavelength of 640 nm, a detection medium that turns purple or blue in the presence of alkaline phosphatase.
HEK293-Blue-hTLR9 cells were incubated at a density of […] cells/mL in a volume of 170 μL, in a 96-well plate in Dulbecco's Modified Eagle's medium (DMEM) containing 4.5 g/L glucose, 50 U/mL penicillin, […], […], 2 mM L-glutamine, 10% (v/v) heat-inactivated fetal bovine serum with addition of 20 μL test compound in a serial dilution in the presence of final DMSO at 1% and 10 μL of 20 uM ODN2006 in above DMEM, perform incubation under 37° C. in a CO2 incubator for 20 hrs. Then 20 μL of the supernatant from each well was incubated with 180 μL Quanti-blue substrate solution at 37° C. for 2 hrs and the absorbance was read at 620˜655 nm using a spectrophotometer. The signalling pathway that TLR9 activation leads to downstream NF-κB activation has been widely accepted, and therefore similar reporter assay was modified for evaluating TLR9 antagonist.
Compound `Cc1ccc(N2C[C@@H](C)O[C@@H](C(=O)NC3CCN(C)CC3)C2)c2cccnc12` [Example 16, (2R,6R)-6-methyl-N-(1-methyl-4-piperidyl)-4-(8-methyl-5-quinolyl)morpholine-2-carboxamide] gave a pIC50 of 4.40.

For the compound `C[C@@H]1CN(c2ccc(C(F)(F)F)c3ncccc23)C[C@H](C(=O)NC2CN(C)CC23CC3)O1` (stereo partly drawn) [Example 9, (2R,6R)-6-methyl-N-(5-methyl-5-azaspiro[2.4]heptan-7-yl)-4-[8-(trifluoromethyl)-5-quinolyl]morpholine-2-carboxamide], the pIC50 was 4.96.

With `C[C@@H]1CN(c2ccc(C(F)(F)F)c3ncccc23)C[C@H](C(=O)NC[C@@H]2CC(F)(F)CN2)O1` [Example 30], the pIC50 is under 4.00.

Compound `C[C@@H]1CN(c2ccc(C(F)(F)F)c3ncccc23)C[C@H](C(=O)NC2CC3CNCC32)O1` (single isomer, unassigned) [Example 49B] had a pIC50 of 5.14.
